PubChem BioAssay AID200 (DTP/NCI, 2004)
Where “and” joins values, the source holds several entries; their conditions need not be identical. Equal entries are not always repeated. Toxic doses and inconclusive results are not listed. *1 amine or outer side, *2 acyl side, *3 side chain or, on linkers, in order; H or OH if unused. Where a SMILES comes first, the peptide text is derived from it. Bridges are numbered along the chain shown (N, C = ends). Roman numbers before positions name the chains, in order. [ ]: non-standard residue; d: D form. Actinocin(1to9) = Cc1c2oc3c(C)ccc(C(=O)[*:2])c3nc-2c(C(=O)[*:1])c(N)c1=O; X1 = COC(=O)CCN(CC(=O)[*:2])[*:1]; NMeA = CN[CH](C)C(=O)O

System: B6C3F1 mice, B16 melanoma ip, median survival T/C
Assay: NCI In Vivo Anticancer Drug Screen. Data for tumor model B16 Melanoma (intraperitoneal) in B6C3F1 mice
Conditions: endpoint: median survival time, higher = longer survival
Method in brief: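 Mice bearing transplanted tumor were dosed with compound or vehicle, and survival was recorded. Activity is expressed as the treated-group measurement (T) divided by the vehicle control measurement (C).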

[1] = dose: 100.0 mg/kg/injection, schedule: Q01DX009 (ip), vehicle: saline
[2] = dose: 200.0 mg/kg/injection, schedule: Q01DX009 (ip), vehicle: saline
[3] = dose: 12.5 mg/kg/injection, schedule: Q01DX009 (ip), vehicle: Klucel (hydroxypropylcellulose) (HPC)
[4] = dose: 25.0 mg/kg/injection, schedule: Q01DX009 (ip), vehicle: Klucel (hydroxypropylcellulose) (HPC)
[5] = dose: 50.0 mg/kg/injection, schedule: Q01DX009 (ip), vehicle: Klucel (hydroxypropylcellulose) (HPC)
[6] = dose: 12.5 mg/kg/injection, schedule: Q01DX009 (ip), vehicle: saline with Tween-80
[7] = dose: 25.0 mg/kg/injection, schedule: Q01DX009 (ip), vehicle: saline with Tween-80
[8] = dose: 50.0 mg/kg/injection, schedule: Q01DX009 (ip), vehicle: saline with Tween-80
[9] = dose: 0.5 mg/kg/injection, schedule: Q01DX009 (ip), vehicle: saline
[10] = dose: 2.0 mg/kg/injection, schedule: Q01DX009 (ip), vehicle: saline
[11] = dose: 3.12 mg/kg/injection, schedule: Q01DX009 (ip), vehicle: saline with Tween-80
[12] = dose: 6.25 mg/kg/injection, schedule: Q01DX009 (ip), vehicle: saline with Tween-80
[13] = dose: 100.0 mg/kg/injection, schedule: Q01DX009 (ip), vehicle: Klucel (hydroxypropylcellulose) (HPC)
[14] = dose: 200.0 mg/kg/injection, schedule: Q01DX009 (ip), vehicle: Klucel (hydroxypropylcellulose) (HPC)

SMILES: COC(=O)CCN1CC(=O)N(C)C(C)C(=O)OC(C)C(NC(=O)c2c3nc4c(C(=O)NC5C(=O)NC(C(C)C)C(=O)N6CCCC6C(=O)N(CCC(=O)OC)CC(=O)N(C)C(C)C(=O)OC5C)ccc(C)c4oc-3c(C)c(=O)c2N)C(=O)NC(C(C)C)C(=O)N2CCCC2C1=O (centres undefined) (I: TVP[X1][NMeA] / II: TVP[X1][NMeA]; ester I:1-I:C, II:1-II:C; linker I:N-II:N via Actinocin(1to9); configuration not given here)
- T/C (dose: 0.25 mg/kg/injection, schedule: Q04DX003 (ip), vehicle: saline + alcohol): 109 % of control
- T/C (dose: 0.5 mg/kg/injection, schedule: Q04DX003 (ip), vehicle: saline + alcohol): 105 % of control
- T/C (dose: 1.0 mg/kg/injection, schedule: Q04DX003 (ip), vehicle: saline + alcohol): 98 % of control and 104 % of control
- T/C (dose: 2.0 mg/kg/injection, schedule: Q04DX003 (ip), vehicle: saline + alcohol): 118 % of control and 102 % of control
- T/C (dose: 4.0 mg/kg/injection, schedule: Q04DX003 (ip), vehicle: saline + alcohol): 114 % of control
- T/C (dose: 8.0 mg/kg/injection, schedule: Q04DX003 (ip), vehicle: saline + alcohol): 121 % of control

SMILES: CN(C)CC1CCCC(CN(C)C)C1=O (centres undefined)
- T/C (dose: 50.0 mg/kg/injection, schedule: Q01DX009 (ip), vehicle: saline): 103 % of control
- T/C [1]: 97 % of control
- T/C [2]: 100 % of control

SMILES: C[PH+](C)C.C[PH+](C)C.[Au]
- T/C (dose: 0.31 mg/kg/injection, schedule: Q01DX009 (ip), vehicle: Klucel (hydroxypropylcellulose) (HPC)): 115 % of control
- T/C (dose: 0.62 mg/kg/injection, schedule: Q01DX009 (ip), vehicle: Klucel (hydroxypropylcellulose) (HPC)): 117 % of control
- T/C (dose: 1.25 mg/kg/injection, schedule: Q01DX009 (ip), vehicle: Klucel (hydroxypropylcellulose) (HPC)): 114 % of control
- T/C (dose: 2.5 mg/kg/injection, schedule: Q01DX009 (ip), vehicle: Klucel (hydroxypropylcellulose) (HPC)): 112 % of control

SMILES: C[As](C)SCCC(N)C(=O)NC(CCS[As](C)C)C(=O)O (centres undefined)
- T/C (dose: 6.25 mg/kg/injection, schedule: Q01DX009 (ip), vehicle: Klucel (hydroxypropylcellulose) (HPC)): 86 % of control
- T/C [3]: 91 % of control
- T/C [4]: 96 % of control
- T/C [5]: 96 % of control

SMILES: CCCCOCN(COCCCC)C12CC3CC(CC(C3)C1)C2
- T/C [6]: 108 % of control and 107 % of control
- T/C [7]: 104 % of control and 105 % of control
- T/C [8]: 109 % of control and 100 % of control
- T/C (dose: 100.0 mg/kg/injection, schedule: Q01DX009 (ip), vehicle: saline with Tween-80): 104 % of control and 106 % of control
- T/C (dose: 200.0 mg/kg/injection, schedule: Q01DX009 (ip), vehicle: saline with Tween-80): 105 % of control

SMILES: CN(Cc1cnc2nc(N)nc(N)c2n1)c1c(Cl)cc(C(=O)NC(CCC(=O)O)C(=O)O)cc1Cl (centres undefined)
- T/C (dose: 12.5 mg/kg/injection, schedule: Q01DX009 (ip), vehicle: saline): 96 % of control
- T/C (dose: 25.0 mg/kg/injection, schedule: Q01DX009 (ip), vehicle: saline): 91 % of control

SMILES: COc1cccc2c1C(=O)c1c(O)c3c(c(O)c1C2=O)C[C@@](O)(/C(C)=N/NC(=O)c1ccc(Cl)cc1)C[C@@H]3OC1CC(N)C(O)C(C)O1 (some centres undefined)
- T/C [9]: 105 % of control
- T/C [10]: 183 % of control
- T/C (dose: 4.0 mg/kg/injection, schedule: Q01DX009 (ip), vehicle: saline): 216 % of control
- T/C (dose: 8.0 mg/kg/injection, schedule: Q01DX009 (ip), vehicle: saline): 151 % of control

SMILES: [N-]=[N+]=[N-]
- T/C (dose: 1.5 mg/kg/injection, schedule: Q01DX009 (ip), vehicle: saline): 101 % of control
- T/C (dose: 3.0 mg/kg/injection, schedule: Q01DX009 (ip), vehicle: saline): 90 % of control
- T/C (dose: 6.0 mg/kg/injection, schedule: Q01DX009 (ip), vehicle: saline): 103 % of control
- T/C (dose: 12.0 mg/kg/injection, schedule: Q01DX009 (ip), vehicle: saline): 108 % of control

SMILES: CCOC(=O)C1=C(C)NC(C)=C(C(=O)OCC)C1C
- T/C [1]: 94 % of control
- T/C [2]: 95 % of control
- T/C (dose: 400.0 mg/kg/injection, schedule: Q01DX009 (ip), vehicle: saline): 91 % of control

SMILES: CCOC(=O)NC1=C(N2CC2)C(=O)C(NC(=O)OCC)=C(N2CC2)C1=O
- T/C (dose: 0.25 mg/kg/injection, schedule: Q01DX009 (ip), vehicle: saline): 97 % of control
- T/C [9]: 92 % of control
- T/C [10]: 115 % of control

SMILES: CCCCNC(C)(C)COC(=O)/C=C/c1ccc(OCCCC)cc1
- T/C [6]: 98 % of control
- T/C [7]: 93 % of control
- T/C [8]: 90 % of control

SMILES: Nc1cc2c3c(cccc3c1)C(=O)N(CCN1CCCC1)C2=O
- T/C [11]: 113 % of control and 106 % of control
- T/C [12]: 97 % of control and 98 % of control
- T/C [6]: 115 % of control and 107 % of control
- T/C [8]: 122 % of control

SMILES: CCCCCCCCCCCCCC#CC(=O)O
- T/C [11]: 110 % of control and 94 % of control
- T/C [12]: 112 % of control and 94 % of control
- T/C [6]: 92 % of control and 105 % of control
- T/C [7]: 89 % of control

SMILES: COCC1OC2OC3C(COC)OC(OC4C(COC)OC(OC5C(COC)OC(OC6C(COC)OC(OC7C(COC)OC(OC8C(COC)OC(OC1C(O)C2O)C(O)C8O)C(O)C7O)C(O)C6O)C(O)C5O)C(O)C4O)C(O)C3O (centres undefined) (tested in a mixture with another compound)
- T/C [4]: 87 % of control
- T/C (dose: 25.0 mg/kg/injection, schedule: Q04HX027 (ip), vehicle: Klucel (hydroxypropylcellulose) (HPC)): 93 % of control
- T/C [5]: 90 % of control
- T/C (dose: 50.0 mg/kg/injection, schedule: Q01DX009 (oral), vehicle: Klucel (hydroxypropylcellulose) (HPC)): 93 % of control
- T/C (dose: 50.0 mg/kg/injection, schedule: Q04HX027 (ip), vehicle: Klucel (hydroxypropylcellulose) (HPC)): 86 % of control
- T/C (dose: 50.0 mg/kg/injection, schedule: Q04HX027 (oral), vehicle: Klucel (hydroxypropylcellulose) (HPC)): 97 % of control
- T/C [13]: 105 % of control
- T/C (dose: 100.0 mg/kg/injection, schedule: Q01DX009 (oral), vehicle: Klucel (hydroxypropylcellulose) (HPC)): 89 % of control and 93 % of control
- T/C (dose: 100.0 mg/kg/injection, schedule: Q04HX027 (ip), vehicle: Klucel (hydroxypropylcellulose) (HPC)): 97 % of control
- T/C (dose: 100.0 mg/kg/injection, schedule: Q04HX027 (oral), vehicle: Klucel (hydroxypropylcellulose) (HPC)): 106 % of control
- T/C [14]: 90 % of control
- T/C (dose: 200.0 mg/kg/injection, schedule: Q04HX027 (oral), vehicle: Klucel (hydroxypropylcellulose) (HPC)): 105 % of control
- T/C (dose: 400.0 mg/kg/injection, schedule: Q01DX009 (ip), vehicle: Klucel (hydroxypropylcellulose) (HPC)): 86 % of control
- T/C (dose: 400.0 mg/kg/injection, schedule: Q01DX009 (oral), vehicle: Klucel (hydroxypropylcellulose) (HPC)): 86 % of control and 102 % of control
- T/C (dose: 400.0 mg/kg/injection, schedule: Q04HX027 (oral), vehicle: Klucel (hydroxypropylcellulose) (HPC)): 101 % of control
- T/C (dose: 800.0 mg/kg/injection, schedule: Q01DX009 (oral), vehicle: Klucel (hydroxypropylcellulose) (HPC)): 93 % of control
- T/C (dose: 800.0 mg/kg/injection, schedule: Q04HX027 (oral), vehicle: Klucel (hydroxypropylcellulose) (HPC)): 110 % of control
- T/C (dose: 1600.0 mg/kg/injection, schedule: Q01DX009 (oral), vehicle: Klucel (hydroxypropylcellulose) (HPC)): 92 % of control
- T/C (dose: 1600.0 mg/kg/injection, schedule: Q04HX027 (oral), vehicle: Klucel (hydroxypropylcellulose) (HPC)): 103 % of control
- T/C (dose: 3200.0 mg/kg/injection, schedule: Q01DX009 (oral), vehicle: Klucel (hydroxypropylcellulose) (HPC)): 95 % of control

SMILES: C=Cc1cnc([N+](=O)[O-])n1C
- T/C [3]: 99 % of control and 106 % of control
- T/C [4]: 103 % of control and 107 % of control
- T/C [5]: 100 % of control and 105 % of control
- T/C [13]: 109 % of control and 106 % of control
- T/C [14]: 110 % of control and 100 % of control
